Measurements published in ChEMBL document CHEMBL1201862, “PubChem BioAssay data set” (2004).
Active and inactive are the calls of the source.

What was measured:
[1] = biological target: T1, Aryl hydrocarbon receptor (Homo sapiens, UniProt P35869); test: Luminescence-based cell-based high throughput dose response assay for activators of the Aryl Hydrocarbon Receptor (AHR). [Related pubchem assays: 2796 (Primary screen (AHR activators in singlicate)), 2845 (Confirmation screen (AHR activators in triplicate)), 434939 (Counterscreen (PXR activators in triplicate)), 2804 (Summary (AHR activators))]; type: ADME
T1 sequence (P35869 whole entry): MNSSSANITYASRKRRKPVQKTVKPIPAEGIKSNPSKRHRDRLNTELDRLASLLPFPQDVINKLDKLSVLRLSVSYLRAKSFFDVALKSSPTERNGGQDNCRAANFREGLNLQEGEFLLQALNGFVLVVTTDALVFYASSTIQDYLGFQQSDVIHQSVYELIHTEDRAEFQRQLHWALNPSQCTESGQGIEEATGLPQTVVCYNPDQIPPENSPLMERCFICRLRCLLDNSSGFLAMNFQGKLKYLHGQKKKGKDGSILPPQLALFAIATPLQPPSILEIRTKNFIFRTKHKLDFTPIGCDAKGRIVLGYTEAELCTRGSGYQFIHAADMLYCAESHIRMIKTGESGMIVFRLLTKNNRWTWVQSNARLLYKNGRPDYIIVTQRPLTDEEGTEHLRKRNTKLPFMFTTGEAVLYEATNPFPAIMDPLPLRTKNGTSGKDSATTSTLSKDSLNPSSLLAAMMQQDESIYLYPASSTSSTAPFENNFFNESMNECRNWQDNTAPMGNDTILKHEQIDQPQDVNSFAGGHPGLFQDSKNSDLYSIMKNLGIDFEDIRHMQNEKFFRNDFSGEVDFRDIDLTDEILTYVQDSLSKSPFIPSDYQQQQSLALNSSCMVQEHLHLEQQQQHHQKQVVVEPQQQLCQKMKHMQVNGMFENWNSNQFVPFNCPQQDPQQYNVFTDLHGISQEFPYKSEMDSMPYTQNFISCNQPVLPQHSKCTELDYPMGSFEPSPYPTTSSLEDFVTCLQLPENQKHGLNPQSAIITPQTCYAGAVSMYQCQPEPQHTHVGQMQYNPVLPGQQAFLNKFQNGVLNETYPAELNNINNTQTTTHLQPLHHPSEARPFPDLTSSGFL

[2] = biological target: Glyceraldehyde-3-phosphate dehydrogenase (Homo sapiens, UniProt P04406)
Sequence of Glyceraldehyde-3-phosphate dehydrogenase (P04406 whole entry): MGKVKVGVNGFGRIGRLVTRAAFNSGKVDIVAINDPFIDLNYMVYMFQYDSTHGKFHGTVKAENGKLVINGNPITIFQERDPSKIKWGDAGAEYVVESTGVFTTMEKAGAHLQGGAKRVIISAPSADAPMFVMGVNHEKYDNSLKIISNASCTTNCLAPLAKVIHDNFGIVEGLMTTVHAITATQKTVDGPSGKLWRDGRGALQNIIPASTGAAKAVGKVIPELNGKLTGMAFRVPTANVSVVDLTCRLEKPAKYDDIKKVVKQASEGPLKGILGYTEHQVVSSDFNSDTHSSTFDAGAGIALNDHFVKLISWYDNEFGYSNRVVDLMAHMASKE

Bcl-2-related protein A1 [3] = biological target: T2, Bcl-2-related protein A1 (Mus musculus, UniProt Q07440); test: Bfl-1 inhibitors blocking BH3 peptide binding, confirmation, biochemical, TR-FRET, mouse Bfl-1 (AID 621);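 note: TR-FRET binding of GST-Bfl-1 to FITC-labelled Bid peptide via terbium antibody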
T2 sequence (Q07440 whole entry): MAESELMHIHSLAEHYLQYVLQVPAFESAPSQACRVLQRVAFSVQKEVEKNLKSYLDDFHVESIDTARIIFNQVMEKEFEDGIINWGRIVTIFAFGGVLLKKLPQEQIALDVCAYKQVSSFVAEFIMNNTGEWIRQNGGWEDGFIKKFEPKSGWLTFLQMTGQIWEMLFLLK

Bcl-2-related protein A1 [4] = biological target: T2, Bcl-2-related protein A1; test: Bfl-1 binding inhibitors, SAR follow-up, biochemical, fluorescence polarization (AID 1070)
[5] = inhibitors of Bluetongue virus cytopathic effect, confirmation, arbovirus, BSR cells (AID 1250); type: functional;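 note: protection from viral cytopathic effect measured as cell viability by ATP luminescence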
[6] = biological target: Inward rectifier potassium channel 2 (Mus musculus, UniProt P35561); test: Manual electrophysiological patch clamp assay for SAR compounds that inhibit/block inward-rectifying potassium ion channel Kir2.1. [Related pubchem assays: 1843 (Summary assay for Kir2.1 inhibitor assays.), 1672 (Primary HTS of 305616 compounds where 2592 were identified as active.)]; type: functional
Sequence of Inward rectifier potassium channel 2 (P35561 whole entry): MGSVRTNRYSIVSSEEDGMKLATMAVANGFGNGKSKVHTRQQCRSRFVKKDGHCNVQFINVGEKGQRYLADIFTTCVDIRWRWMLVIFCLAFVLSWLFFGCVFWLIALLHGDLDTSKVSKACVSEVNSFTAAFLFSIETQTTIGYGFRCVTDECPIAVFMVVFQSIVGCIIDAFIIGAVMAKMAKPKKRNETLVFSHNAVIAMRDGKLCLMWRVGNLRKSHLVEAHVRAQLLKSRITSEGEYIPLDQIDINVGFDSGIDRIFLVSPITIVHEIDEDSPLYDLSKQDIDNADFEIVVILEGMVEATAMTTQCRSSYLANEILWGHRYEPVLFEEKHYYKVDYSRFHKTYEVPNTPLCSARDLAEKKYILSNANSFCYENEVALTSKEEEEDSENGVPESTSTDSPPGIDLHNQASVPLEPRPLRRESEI

[7] = biological target: Mothers against decapentaplegic homolog 3 (Homo sapiens, UniProt P84022); test: SMAD3 transcription factor inhibitors, dose response (AID 715); type: functional
Sequence of Mothers against decapentaplegic homolog 3 (P84022 whole entry): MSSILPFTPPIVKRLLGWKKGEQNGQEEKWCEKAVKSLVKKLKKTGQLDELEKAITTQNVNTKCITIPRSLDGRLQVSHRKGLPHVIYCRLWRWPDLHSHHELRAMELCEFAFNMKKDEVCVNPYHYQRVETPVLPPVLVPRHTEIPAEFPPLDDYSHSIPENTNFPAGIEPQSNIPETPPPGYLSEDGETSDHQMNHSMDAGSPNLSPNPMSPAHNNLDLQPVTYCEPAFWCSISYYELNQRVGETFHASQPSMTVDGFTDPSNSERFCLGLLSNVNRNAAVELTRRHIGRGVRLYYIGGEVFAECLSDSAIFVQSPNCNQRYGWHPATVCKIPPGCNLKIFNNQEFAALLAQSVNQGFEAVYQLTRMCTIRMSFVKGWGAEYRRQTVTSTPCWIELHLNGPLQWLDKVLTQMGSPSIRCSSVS

[8] = biological target: Protein-tyrosine kinase 2-beta (Homo sapiens, UniProt Q14289);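 note: potency of inhibitors of PYK2 kinase phosphorylation of poly-GT substrate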
Sequence of Protein-tyrosine kinase 2-beta (Q14289 whole entry): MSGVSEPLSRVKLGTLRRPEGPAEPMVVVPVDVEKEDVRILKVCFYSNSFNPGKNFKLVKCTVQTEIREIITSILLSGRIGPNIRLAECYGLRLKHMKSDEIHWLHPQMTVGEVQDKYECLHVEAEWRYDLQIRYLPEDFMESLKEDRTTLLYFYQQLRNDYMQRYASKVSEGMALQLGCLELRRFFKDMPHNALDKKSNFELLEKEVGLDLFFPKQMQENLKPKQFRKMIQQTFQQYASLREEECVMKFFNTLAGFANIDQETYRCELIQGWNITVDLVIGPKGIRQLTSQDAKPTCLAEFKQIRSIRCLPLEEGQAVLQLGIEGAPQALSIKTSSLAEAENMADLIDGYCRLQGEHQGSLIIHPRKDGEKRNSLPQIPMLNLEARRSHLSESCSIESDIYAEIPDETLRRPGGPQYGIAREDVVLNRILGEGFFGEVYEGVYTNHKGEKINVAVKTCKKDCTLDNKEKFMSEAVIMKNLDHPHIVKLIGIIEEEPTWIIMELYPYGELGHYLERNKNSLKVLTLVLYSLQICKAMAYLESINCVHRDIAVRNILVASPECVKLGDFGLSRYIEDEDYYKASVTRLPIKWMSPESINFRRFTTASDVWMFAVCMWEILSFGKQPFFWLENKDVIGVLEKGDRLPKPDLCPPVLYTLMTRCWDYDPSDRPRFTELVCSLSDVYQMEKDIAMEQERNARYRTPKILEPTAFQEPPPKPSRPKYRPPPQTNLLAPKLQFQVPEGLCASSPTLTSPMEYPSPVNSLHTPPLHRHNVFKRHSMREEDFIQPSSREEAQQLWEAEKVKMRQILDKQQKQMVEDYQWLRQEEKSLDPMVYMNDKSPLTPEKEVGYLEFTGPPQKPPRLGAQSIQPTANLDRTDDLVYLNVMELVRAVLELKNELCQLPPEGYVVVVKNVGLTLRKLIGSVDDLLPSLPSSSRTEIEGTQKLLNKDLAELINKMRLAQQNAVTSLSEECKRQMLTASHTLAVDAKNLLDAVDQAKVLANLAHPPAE

[9] = biological target: Eukaryotic translation initiation factor 4E (Mus musculus, UniProt P63073); test: eIF4E–eIF4G protein interaction inhibitors, dose response, biochemical, TR-FRET (AID 855); type: functional;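 note: potency for disrupting eIF4E binding to eIF4GI seen as loss of FRET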
Sequence of Eukaryotic translation initiation factor 4E (P63073 whole entry): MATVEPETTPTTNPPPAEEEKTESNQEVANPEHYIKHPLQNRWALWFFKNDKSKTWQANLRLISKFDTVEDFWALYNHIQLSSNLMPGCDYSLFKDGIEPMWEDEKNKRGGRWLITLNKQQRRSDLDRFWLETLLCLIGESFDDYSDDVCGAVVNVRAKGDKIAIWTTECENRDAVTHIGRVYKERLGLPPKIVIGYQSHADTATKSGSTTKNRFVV

[10] = biological target: Sphingosine 1-phosphate receptor 2 (Homo sapiens, UniProt O95136); test: Dose Response Cell Based Assay for Agonists of the S1P2 Receptor of Purchased Analogues. [Related pubchem assays: 729, 843, 854, 736 ]; type: functional
Sequence of Sphingosine 1-phosphate receptor 2 (O95136 whole entry): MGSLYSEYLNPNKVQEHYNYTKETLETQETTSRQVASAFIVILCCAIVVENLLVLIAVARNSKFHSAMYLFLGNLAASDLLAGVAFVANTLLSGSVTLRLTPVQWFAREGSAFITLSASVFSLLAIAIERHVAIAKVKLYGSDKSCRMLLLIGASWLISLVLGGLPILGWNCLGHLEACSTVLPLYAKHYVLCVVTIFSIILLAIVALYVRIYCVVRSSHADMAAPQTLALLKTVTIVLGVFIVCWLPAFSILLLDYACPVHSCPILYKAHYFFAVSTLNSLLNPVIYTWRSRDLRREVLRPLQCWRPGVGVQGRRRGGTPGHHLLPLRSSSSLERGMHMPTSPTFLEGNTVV

Estrogen receptor = biological target: T3, Estrogen receptor (Homo sapiens, UniProt P03372); test: ERα–SRC-3 coactivator interaction inhibitors, confirmation, orthogonal assay, biochemical, ELISA, streptavidin-HRP readout (AID 1079)
T3 sequence (P03372 whole entry): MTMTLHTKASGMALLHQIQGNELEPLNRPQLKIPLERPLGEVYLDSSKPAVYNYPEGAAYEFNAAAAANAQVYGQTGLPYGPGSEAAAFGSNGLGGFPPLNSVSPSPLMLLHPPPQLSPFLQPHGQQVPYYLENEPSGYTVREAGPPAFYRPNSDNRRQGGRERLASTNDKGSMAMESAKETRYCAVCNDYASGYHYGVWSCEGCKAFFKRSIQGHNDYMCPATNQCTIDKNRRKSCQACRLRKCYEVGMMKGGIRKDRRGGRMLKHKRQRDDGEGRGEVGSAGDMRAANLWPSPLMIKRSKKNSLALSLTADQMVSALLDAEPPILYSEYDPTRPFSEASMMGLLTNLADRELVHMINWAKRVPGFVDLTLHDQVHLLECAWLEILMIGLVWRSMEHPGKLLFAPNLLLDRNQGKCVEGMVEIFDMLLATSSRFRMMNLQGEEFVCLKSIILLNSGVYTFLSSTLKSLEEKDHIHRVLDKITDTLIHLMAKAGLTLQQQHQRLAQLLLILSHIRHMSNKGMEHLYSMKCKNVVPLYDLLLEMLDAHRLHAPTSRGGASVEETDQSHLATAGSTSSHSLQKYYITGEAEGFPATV

Bcl-2-like protein 10 = Bcl-2-like protein 10 (Homo sapiens, UniProt Q9HD36); test: Biochemical TR3 FP assay of Bcl-B inhibitor potency, EC50 (AID 1243); type: functional
Sequence of Bcl-2-like protein 10 (Q9HD36 whole entry): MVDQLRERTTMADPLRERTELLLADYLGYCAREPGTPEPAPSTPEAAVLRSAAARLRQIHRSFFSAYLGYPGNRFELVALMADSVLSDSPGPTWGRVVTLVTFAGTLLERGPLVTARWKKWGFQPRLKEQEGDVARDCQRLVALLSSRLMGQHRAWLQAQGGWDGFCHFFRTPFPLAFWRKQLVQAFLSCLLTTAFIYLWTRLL

Mucolipin-3 = Mucolipin-3 (Homo sapiens, UniProt Q8TDD5); test: Dose response cell-based high-throughput screening assay for agonists of the transient receptor potential channel ML3 (TRPML3). [Related pubchem assays: 1526, 1424, 1448 ]; type: functional
Sequence of Mucolipin-3 (Q8TDD5 whole entry): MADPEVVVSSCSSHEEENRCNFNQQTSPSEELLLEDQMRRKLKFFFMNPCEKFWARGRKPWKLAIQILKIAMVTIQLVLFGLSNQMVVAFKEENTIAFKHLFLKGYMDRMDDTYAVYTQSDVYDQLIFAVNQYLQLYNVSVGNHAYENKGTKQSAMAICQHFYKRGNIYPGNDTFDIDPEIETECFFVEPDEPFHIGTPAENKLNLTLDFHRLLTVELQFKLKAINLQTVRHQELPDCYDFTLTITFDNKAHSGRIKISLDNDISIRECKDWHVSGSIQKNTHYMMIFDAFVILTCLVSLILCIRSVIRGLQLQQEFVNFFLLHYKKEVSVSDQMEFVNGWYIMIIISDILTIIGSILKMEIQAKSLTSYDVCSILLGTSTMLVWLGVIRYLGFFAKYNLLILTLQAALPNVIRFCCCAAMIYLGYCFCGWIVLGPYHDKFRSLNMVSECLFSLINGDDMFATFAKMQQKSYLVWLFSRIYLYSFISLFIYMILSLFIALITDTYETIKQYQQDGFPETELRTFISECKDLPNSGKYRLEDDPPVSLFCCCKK

Ion channel NompC = Ion channel NompC (Danio rerio, UniProt Q7T1G6); test: Fluorescence counterscreen assay for TRPML3 agonists: dose response cell-based high-throughput screening assay to identify agonists of the transient receptor potential channel N1 (TRPN1). [Related pubchem assays: 1526, 1424, 1448 ]; type: functional
HeLa = test: Cytotoxicity counterscreen assay for transcriptional activators of heat shock protein 70 (Hsp70). [Related pubchem assays: 1203, 1252 ]; type: functional; conditions: Homo sapiens;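 note: cells exposed to compound for 16 hours before readout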
[11] = biological target: T4, Microphthalmia-associated transcription factor (Homo sapiens, UniProt O75030); test: TRPM1 promoter luciferase signal decrease, dose response, MITF inhibitor project, cell-based, SK-MEL-5, cherry-picked, set 3 (AID 493073); type: functional
T4 sequence (O75030 whole entry): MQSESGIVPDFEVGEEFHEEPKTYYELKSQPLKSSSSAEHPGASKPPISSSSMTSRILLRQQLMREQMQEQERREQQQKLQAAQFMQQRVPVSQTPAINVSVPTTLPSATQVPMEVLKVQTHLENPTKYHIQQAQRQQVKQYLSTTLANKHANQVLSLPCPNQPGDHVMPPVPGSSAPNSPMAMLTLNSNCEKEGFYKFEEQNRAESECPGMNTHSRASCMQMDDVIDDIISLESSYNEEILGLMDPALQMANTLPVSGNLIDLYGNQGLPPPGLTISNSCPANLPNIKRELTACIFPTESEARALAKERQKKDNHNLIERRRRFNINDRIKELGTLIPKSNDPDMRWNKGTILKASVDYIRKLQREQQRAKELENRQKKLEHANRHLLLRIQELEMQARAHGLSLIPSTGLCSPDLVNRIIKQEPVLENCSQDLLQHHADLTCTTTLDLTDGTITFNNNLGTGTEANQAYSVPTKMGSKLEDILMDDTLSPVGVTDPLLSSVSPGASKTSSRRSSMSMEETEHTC

[12] = Shn3 3'UTR reporter inhibitors, dose response, cell-based, Clone20 osteoblasts, firefly luciferase, cherry-picked (AID 624132); type: functional;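 note: firefly luciferase luminescence from reporter carrying the Shn3 3'UTR in osteoblasts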
[13] = HepG2 cell cytotoxicity, dose response, cytotoxicity control for Shn3 inhibitor project, CellTiter-Glo, cherry-picked (AID 624134); type: functional, cell-based
[14] = control 3'UTR Renilla luciferase suppression, dose response, counter-screen for Shn3 inhibitor project, cell-based, Clone20-Shn3RL, cherry-picked (AID 624133); type: functional
Paired box protein Pax-8 = Paired box protein Pax-8 (Homo sapiens, UniProt Q06710); test: inhibitors of PAX8-driven TPO luciferase reporter, dose response, RMG-I cells, cherry-pick (AID 687027); type: functional, cell-based;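 note: luciferase reporter driven by Pax8 target thyroperoxidase promoter measured by SteadyGlo luminescence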
Sequence of Paired box protein Pax-8 (Q06710 whole entry): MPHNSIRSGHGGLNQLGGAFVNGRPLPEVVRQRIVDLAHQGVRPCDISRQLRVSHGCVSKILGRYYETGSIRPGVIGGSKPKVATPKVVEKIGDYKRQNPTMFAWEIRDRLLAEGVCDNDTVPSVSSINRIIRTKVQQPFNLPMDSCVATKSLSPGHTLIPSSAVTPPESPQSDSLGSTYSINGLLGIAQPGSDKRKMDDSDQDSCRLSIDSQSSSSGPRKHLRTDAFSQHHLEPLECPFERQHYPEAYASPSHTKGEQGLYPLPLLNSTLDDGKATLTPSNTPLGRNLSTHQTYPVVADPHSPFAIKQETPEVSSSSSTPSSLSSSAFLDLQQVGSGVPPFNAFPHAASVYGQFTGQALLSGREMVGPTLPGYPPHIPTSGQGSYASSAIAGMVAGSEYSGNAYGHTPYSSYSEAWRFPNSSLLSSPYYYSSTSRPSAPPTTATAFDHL

[15] = A High Throughput Confirmatory Assay used to Identify Novel Compounds that Inhibit Mycobacterium Tuberculosis in the absence of Glycerol.; type: functional
[16] = microbe, parasite or virus in culture; type: functional; conditions: Mycobacterium tuberculosis
HEK293 [17] = test: cells; conditions: Homo sapiens
HEK293 [18] = test: cells; conditions: Homo sapiens; remark: listed apart in the source
BJ [19] = test: cytotoxicity toward BJ-TERT fibroblasts, dose response, cell-based, RAS-independent, luminescence (AID 1933); type: functional; conditions: Homo sapiens
BJ [20] = test: cells; type: functional, cell-based; conditions: Homo sapiens
[21] = Luminescence-based dose response cell-based high throughput screening assay for cytotoxic compounds using the IEC-6 intestinal epithelial cell line. [Related pubchem assays: 1858 (Summary AID.), 1825 (Counterscreen.), 1907 (Confirmation screen.)]; type: functional
BJ [22] = test: cytotoxicity toward BJ-TERT-LT-ST fibroblasts, dose response, cell-based, RAS-independent, luminescence (AID 1935); type: functional; conditions: Homo sapiens;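 note: BJ fibroblasts immortalized with TERT plus LT and ST oncogenes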
[23] = cytotoxicity toward DRD oncogenic fibroblasts, dose response, cell-based, non-viral oncogenic, luminescence (AID 1934); type: functional; conditions: Homo sapiens
BJ [24] = test: cytotoxicity toward Ras-transformed BJeLR fibroblasts, dose response, cell-based, alamar blue fluorescence, cherrypicked samples (AID 2631); type: functional; conditions: Homo sapiens;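 note: confirmatory dose-response assay in RAS-dependent BJ fibroblasts engineered with TERT, LT and ST, with cytotoxicity read by fluorescence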
Vero = test: cells; type: functional; conditions: Chlorocebus sabaeus
[25] = Luminescence Cell-Based Dose Response to Identify Activators of 5'UTR Stem-Loop Driven Prion Protein mRNA Translation in H4-C Neuroglioblastoma Cells. [Related pubchem assays: 1829 (Project Summary), 1814 (Primary HTS)]; type: functional
[26] = Luminescence Cell-Based Dose Response HTS to Identify Activators of Luciferase Translation or Activity in H4 […] Cells. [Related pubchem assays: 1829 (Project Summary), 1814 (Primary HTS)]; type: functional
[27] = Luminescence Cell-Based Dose Response to Identify Activators of Luciferase Translation or Activity in H4-C Neuroglioblastoma Cells. [Related pubchem assays: 1829 (Project Summary), 1814 (Primary HTS)]; type: functional
[28] = Luminescence Cell-Based Dose Confirmation to Identify Activators of 5'UTR Stem-Loop Driven Alpha-Synuclein mRNA Translation in H4 Neuroglioblastoma Cells. [Related pubchem assays: 1829 (Project Summary), 1814 (Primary HTS)]; type: functional

Cc1ccc(-n2c(=O)[nH]cc(C(=O)Nc3ccc4c(c3)OCO4)c2=O)cc1C
EC50 [1]: 7.75 µM (active)

COc1ccc(N2CCN(C3=C(Cl)C(=O)N(c4ccc(Cl)c(Cl)c4)C3=O)CC2)cc1
IC50 [2]: > 100 µM (not active) | IC50 (Bcl-2-related protein A1 [3]): 6.79 µM (active) | IC50 (Bcl-2-related protein A1 [4]): 1.25 µM (active)

CCCC1=NN2C(=N)/C(=C/c3c[nH]c4ccccc34)C(=O)N=C2S1
IC50 [5]: 64.6 µM (active)

COc1ccc(CNC2CCCc3ccccc32)cc1 (stereo not given)
IC50 [6]: 3.59 µM (active)

O=[N+]([O-])c1cc(/C=N\Nc2nccs2)ccc1O
IC50 [7]: 30.9 µM (not active) | IC50 [8]: 3.15 µM (active) | IC50 [9]: 10.8 µM (active)

Cc1cc(C(=O)Cn2cnc3c2c(=O)n(C)c(=O)n3C)c(C)n1Cc1ccccc1
EC50 [10]: > 30 µM (not active)

CC(C)(C)OC(=O)[C@@H](CCC(=O)N1CCN(c2ccc(C#N)cc2)CC1)n1c(=S)[nH]c2ccccc2c1=O
IC50 (Estrogen receptor): 80 nM (not active)

O=C(O)c1ccc([N+](=O)[O-])c2c1NC(c1ccccc1)C1CC=CC21 (stereo not given)
EC50 (Bcl-2-like protein 10): 3.92 µM (active)

O=S(=O)(Nc1ccccc1N1CCCCC1)c1cccs1
EC50 (Mucolipin-3): 2.3 µM (active) | EC50 (Ion channel NompC): > 29.9 µM (not active)

CC(C)C(=O)N1CCN(c2ccc(NC(=O)c3ccc([N+](=O)[O-])o3)cc2Cl)CC1
CC50 (HeLa): 3.45 µM (active) | AC50 [11]: 7.05 µM (active) | AC50 [12]: 954 nM (active) | AC50 [13]: 27.8 µM (active) | AC50 [14]: 8.27 µM (active) | AC50 (Paired box protein Pax-8): 3.25 µM (active)

CCCCC(=O)/C=C/n1c(=S)oc2ccccc21
IC50 [15]: > 100 µM (active) | CC50 [16]: 19.8 µM (active) | EC50 (HEK293 [17]): > 59.6 µM (inactive) | EC50 (HEK293 [18]): > 2.21 µM (active)

Cc1ccc(/C=N/NC(=O)c2[nH]nc3c2CCCC3)cc1
EC50 (BJ [19]): 310 nM (inconclusive) | EC50 (BJ [20]): 382 nM (active) | IC50 [21]: 320 nM (active) | EC50 (BJ [22]): 370 nM (inconclusive) | EC50 [23]: 711 nM (inconclusive) | EC50 (BJ [24]): < 104 nM (active) | CC50 (Vero): 240 nM (active)

C=CCSc1nnc2c3cccc(C)c3nc-2[nH]1
EC50 [25]: 317 nM (active) | EC50 [26]: < 100 nM (active) | EC50 [27]: 310 nM (active) | EC50 [28]: 311 nM (active)
